Source: PMC10224356, “Trisubstituted 1,3,5-Triazines as Histamine H4 Receptor Antagonists with Promising Activity In Vivo” (Molecules, 2023)
“Also recorded” adds a separate entry of the source.

Assays:
mice = assay: Chloroquine-induced pruritus; assay type: in vivo
Source text: When comparing the activity of the tested in both used models, it should be noted that the efficacy (higher maximal effect) and potency (lower doses needed to obtain the same result) of the compound were better in histamine-induced pruritus. Nevertheless, compound 6 was also active in histamine-independent itch, which contrasts with the activity of pyrilamine representing a commonly used drug in the treatment of pruritus. […] The wide spectrum of antipruritic activity of compound 6 is very promising, considering that histamine-independent itch is still a crucial clinical problem in pruritus treatment.
The surface (around 2 cm^2) of the mice’s nape was shaved at least 2 days prior to experiments. On the day of the experiment, mice were individually placed in plastic chambers (15 × 15 × 30 cm) and after the 30 min habituation period, they were given an intradermal (i.d.) injection of histamine dihydrochloride (10 µmol/site) or chloroquine (CQ, 200 µg/site), which were dissolved in physiological saline and administrated in the constant volume of 20 μL. Immediately after the injection, scratching (series of movements considered as a single scratching bout) of the injected site by the hind paw was counted for 60 min or 30 min after histamine and CQ administration, respectively. Before pruritogens injection different groups of mice were treated i.p. with vehicle (10 mL/kg, negative control) or the dose–response of investigated compound.
Figure 9 The effect of compound 6 and reference compound pyrilamine (Pyr) on the number of scratching bouts during 60 min-long observation in histamine-induced pruritus (A) and 30 min-long observation in chloroquine-induced pruritus (B). The tested compound or vehicle (1% solution of Tween 80) was administered intraperitoneally (i.p.) 30 min before the intradermal (i.d.) injection of histamine or chloroquine. The results are presented as bar plots showing the mean ± SEM. Statistical analysis: one-way ANOVA followed by Dunnett’s post hoc test, * p < 0.05, ** p < 0.01, *** p < 0.001, n = 8–10 mice per group.

H1R = H1R (Homo sapiens, UniProt P35367); assay: Preliminary study at H1R
Chain of H1R (P35367 whole entry, species assumed): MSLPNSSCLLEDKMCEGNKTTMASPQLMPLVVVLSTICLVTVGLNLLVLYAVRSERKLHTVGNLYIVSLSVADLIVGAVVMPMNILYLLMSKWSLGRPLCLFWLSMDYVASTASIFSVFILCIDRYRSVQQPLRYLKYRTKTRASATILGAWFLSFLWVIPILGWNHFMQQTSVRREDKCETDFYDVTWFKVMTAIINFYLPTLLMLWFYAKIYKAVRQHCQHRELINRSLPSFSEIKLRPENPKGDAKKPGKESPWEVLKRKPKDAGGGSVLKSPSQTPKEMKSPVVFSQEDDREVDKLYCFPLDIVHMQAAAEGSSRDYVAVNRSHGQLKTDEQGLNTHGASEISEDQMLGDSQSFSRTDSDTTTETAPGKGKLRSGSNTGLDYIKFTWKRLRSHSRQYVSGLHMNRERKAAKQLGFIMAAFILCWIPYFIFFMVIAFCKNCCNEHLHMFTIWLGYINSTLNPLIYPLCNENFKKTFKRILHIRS

HepG2 cells = assay: Toxicity evaluation, MTS assay in HepG2 cells; assay type: cell-based, human
Source text: Toxic substances can affect the cells. Early in the research process, it is crucial to determine whether obtained compounds can induce such effects. From our series of compounds, compound 6 was selected for toxicity evaluation. MTS assay was used to test toxicity on HepG2 and SH-SY5Y cell lines. HepG2 cells closely reflect the human liver cell model whereas SH-SY5Y neuroblastoma cells are used in models of neurodegenerative diseases (especially Parkinson’s disease) to study the cellular and molecular factors that lead to these disorders.
Compound 6, at concentrations ranging from 0.78 µM to 50 µM, was incubated with the respective cell lines for 48 h (HepG2) or 24 h (SH-SY5Y). Then, MTS reagent was added and absorbances at 490 nm were read after 1 h. […] The reduction in SH-SY5Y cell viability (Figure 6B) of an average of 4–12% was observed over the range of concentrations.
The hepatoma cell line HepG2 (ATCC® HB-8065TM) and SH-SY5Y CRL-2266 neuroblastoma cell line were used to evaluate the toxicity of tested compounds. Tests were conducted as described previously. CellTiter 96® Aqueous Non-Radioactive Cell Proliferation Assay was purchased from Promega (Madison, WI, USA). Compounds were tested at 7 concentrations (0.78, 1.56, 3.125, 6.25, 12.5, 25 and 50 µM). Cell viability was determined after incubation with compounds for […]. […]

hH4R [1] = target: T1, hH4R (Homo sapiens, UniProt Q9H3N8); assay: cAMP accumulation assay (LANCE Ultra cAMP, CHO-K1 cells stably expressing hH4R); assay type: cell-based; design: expressed in transfected cells
Method: Intrinsic activity via the Gα subunit was measured using a LANCE Ultra cAMP detection kit and CHO-K1 cells stably expressing hH4R. Adenyl cyclase was stimulated by forskolin (10 µM).
Intrinsic activity in G protein-dependent pathway was measured with homogenous TR-FRET immunoassay, using LANCE Ultra cAMP kit and CHO-K1 H4R cell line or γ-irradiated recombinant CHO-K1 H4R cells (all from PerkinElmer). […] If the CHO-K1 H4R cell line was used it had been cultivated in DMEM/F12 10% FBS 400 µg/mL geneticin and passaged three times a week. […] The antagonist activity was measured in a white, opaque, 384-well microplate (PerkinElmer) with a total volume of 20 µL. […] After incubation, 5 µL of europium chelate-labelled cAMP tracer and 5 µl of ULight-labelled anti-cAMP mAb working solutions were added, mixed and incubated for 1 h. TR-FRET signal was read using a microplate reader (PerkinElmer, Waltham, MA, USA).

hH4R [2] = target: T1, hH4R; assay: β-arrestin recruitment assay (LiveBLAzer, Tango-H4-bla U2OS cells); assay type: cell-based; design: expressed in transfected cells; host or cells: Tango-H4-bla U2OS cells
Method: Compounds were tested using LiveBLAzer^TM assay and Tango-H4-bla U2OS cells, allowing the estimation of the percentage of β-arrestin recruitment in response to tested treatments.
All used media and reagents except DMSO and tested compounds were purchased from ThermoFisher Scientific, Waltham, MA, USA. DMSO was from CarlRoth (Karlsruhe, Germany) and histamine was from Sigma Aldrich (Darmstadt, Germany). […] The day before the experiment cells were collected from the culture flask with trypsin and seeded in 384 well black-wall, clear-bottom plate (PerkinElmer, Waltham, MA, USA) in concentration 10,000 cells/well in FreeStyle medium. After 24 h of incubation, the cells were checked under the microscope and the dilutions of tested compounds were prepared and added to the wells. In agonist mode compounds were added to the wells and plates were placed in the incubator (HERAcell240, Heraeus, Hanau, Germany) for 16 h. In antagonist mode, first, the compounds were added to the wells, plates were incubated for 30 min, then histamine solution (corresponding to EC80—500 nM) was added and plates were put in the incubator for 16 h. After this time β-lactamase substrate mixture was prepared and added to wells (8 µL/well). Cells were incubated for 2 h at room temperature in the dark then the signal was read using an EnSpire microplate reader (PerkinElmer, Waltham, MA, USA). Drawing of dose-dependent curves and IC50 calculation for compounds were made using GraphPad Prism 6 (GraphPad Software, San Diego, CA, USA).

- H1R activity at 10 µM (H1R): 0%
- IC50 (hH4R [1]; antagonist mode, forskolin 10 µM, histamine 140 nM, CHO-K1 hH4R cells, read-out: cAMP hH4R IC50 ± SEM): 10 ± 2 nM
- Kb (hH4R [1]; calculated from IC50 by Leff–Dougall variant of Cheng–Prusoff equation, read-out: pKb cAMP ± SEM (converted)): 3.55 nM
- IC50 (hH4R [2]; antagonist mode, histamine 500 nM (EC80), Tango-H4-bla U2OS cells, read-out: β-arrestin hH4R IC50 ± SEM): 10 ± 1 nM
- β-arrestin hH4R % of max. Antagonist Activity at 10 µM (hH4R [2]; at 10 µM, antagonist mode): 101%
- Kb (hH4R [2]; calculated from IC50 by Leff–Dougall variant of Cheng–Prusoff equation, read-out: pKb β-arrestin ± SEM (converted)): 1.62 nM
SMILES: CN1CCN(c2nc(N)nc(CC3CCCC3)n2)CC1 [Compound 6, 4-(Cyclopentylmethyl)-6-(4-methylpiperazin-1-yl)-1,3,5-triazin-2-amine]
- Scratch bouts, chloroquine-induced pruritus, % of the control value (mice; 50 mg/kg i.p., 30 min observation): 25.12 % of the control value
- Number of scratch bouts, chloroquine-induced pruritus (mice; 50 mg/kg i.p., 30 min observation (control 72.20 ± 11.59)): 18.14 ± 3.48 scratch bouts
- Effect on number of scratch bouts, chloroquine-induced pruritus (mice; doses 25 mg/kg and 50 mg/kg i.p.): significantly decreased the number of scratch bouts
- Effect on number of scratch bouts, chloroquine-induced pruritus (mice; doses of 6.25 mg/kg and 12.5 mg/kg i.p.): not statistically significant
- Toxicity in HepG2 cells (MTS) (HepG2 cells; 0.78–50 µM, 48 h incubation): no toxicity up to 50 µM; also recorded: did not show significant toxicity in the tested concentration range (except for 6.25 µM concentration)
- Reduction of HepG2 cell viability (HepG2 cells; even at the highest concentration (50 µM)): ≤ 50%
